Experimental data reported in ChEMBL document CHEMBL5647694, “Novel orally bioavailable EZH1/2 dual inhibitors with greater antitumor efficacy than an EZH2 selective inhibitor” (Cancer Sci, 2017).

Columns and labels:
[1] = biological target: Tyrosine-protein kinase BTK (Homo sapiens) (UniProt Q06187); experiment: Inhibition of N-terminal GST-fused full length human BTK (2 to 659 residues) expressed in baculovirus infected Sf21 cells using Srctide as substrate at 1 uM in presence of ATP by Mobility shift assay
[2] = biological target: Discoidin domain-containing receptor 2 (Homo sapiens) (UniProt Q16832); experiment: Inhibition of N-terminal GST-fused human DDR2 cytoplasmic domain (422 to 855 residues) expressed in baculovirus-infected Sf21 cells using IRS1 as substrate at 1 uM in presence of ATP by Mobility shift assay
[3] = biological target: Epidermal growth factor receptor (Homo sapiens) (UniProt P00533); experiment: Inhibition of N-terminal GST-fused human EGFR cytoplasmic domain (669 to 1210 residues) expressed in baculovirus-infected Sf21 cells using Srctide as substrate at 1 uM in presence of ATP by Mobility shift assay
[4] = biological target: Tyrosine-protein kinase Fgr (Homo sapiens) (UniProt P09769); experiment: Inhibition of N-terminal GST-fused full length human FGR (1 to 529 residues) expressed in baculovirus-infected Sf21 cells using Srctide as substrate at 1 uM in presence of ATP by Mobility shift assay
[5] = biological target: Tyrosine-protein kinase HCK (Homo sapiens) (UniProt P08631); experiment: Inhibition of N-terminal GST-fused truncated human HCK (25 to 526 residues) expressed in baculovirus-infected Sf21 cells using Srctide as substrate at 1 uM in presence of ATP by Mobility shift assay
[6] = biological target: Protein-tyrosine kinase 2-beta (Homo sapiens) (UniProt Q14289); experiment: Inhibition of N-terminal GST-tagged full length human PYK2 (1 to 967 residues) expressed in baculovirus-infected Sf21 cells using Blk/Lyntide as substrate at 1 uM in presence of ATP by Mobility shift assay
[7] = biological target: Leukocyte tyrosine kinase receptor (Homo sapiens) (UniProt P29376); experiment: Inhibition of N-terminal GST-tagged human LTK catalytic domain (498 to 796 residues) expressed in baculovirus-infected Sf21 cells using Srctide as substrate at 1 uM in presence of ATP by Mobility shift assay
[8] = biological target: Casein kinase I isoform epsilon (Homo sapiens) (UniProt P49674); experiment: Inhibition of N-terminal GST-fused human CK1-epsilon catalytic domain (1 to 348 residues) expressed in baculovirus expression system using CKtide as substrate at 1 uM in presence of ATP by Mobility shift assay
[9] = biological target: Serine/threonine-protein kinase DCLK2 (Homo sapiens) (UniProt Q8N568); experiment: Inhibition of N-terminal GST-fused truncated human DCAMKL2 (1 to 691 residues) expressed in baculovirus expression system using GS peptide as substrate at 1 uM in presence of ATP by Mobility shift assay
[10] = biological target: Mitogen-activated protein kinase 1 (Homo sapiens) (UniProt P28482); experiment: Inhibition of N-terminal GST-fused full length human ERK2 (1 to 360 residues) expressed in Escherichia coli expression system using Modified Erktide as substrate at 1 uM in presence of ATP by Mobility shift assay
[11] = biological target: Serine/threonine-protein kinase haspin (Homo sapiens) (UniProt Q8TF76); experiment: Inhibition of N-terminal GST-fused full length human Haspin (1 to 798 residues) expressed in baculovirus expression system using Histone H3 peptide as substrate at 1 uM in presence of ATP by Mobility shift assay
[12] = biological target: Inhibitor of nuclear factor kappa-B kinase subunit alpha (Homo sapiens) (UniProt O15111); experiment: Inhibition of N-terminal GST-fused full length human IKK-alpha (1 to 745 residues) expressed in baculovirus expression system using IkBalpha peptide as substrate at 1 uM in presence of ATP by IMAP assay
[13] = biological target: Mitogen-activated protein kinase 10 (Homo sapiens) (UniProt P53779); experiment: Inhibition of N-terminal GST-fused full length human JNK3 (1 to 426 residues) expressed in Escherichia coli expression system using Modified ERKtide as substrate at 1 uM in presence of ATP by Mobility shift assay
[14] = biological target: MAP/microtubule affinity-regulating kinase 3 (Homo sapiens) (UniProt P27448); experiment: Inhibition of N-terminal GST-fused full length human MARK3 (1 to 729 residues) expressed in baculovirus expression system using CHKtide as substrate at 1 uM in presence of ATP by Mobility shift assay
[15] = Inhibition of N-terminal GST-fused full length human MGC42105 (1 to 436 residues) expressed in baculovirus expression system using CHKtide as substrate at 1 uM in presence of ATP by Mobility shift assay; conditions: condition cancer
[16] = biological target: Serine/threonine-protein kinase Nek2 (Homo sapiens) (UniProt P51955); experiment: Inhibition of N-terminal His-tagged full length human NEK2 (1 to 445 residues) expressed in baculovirus expression system using CDK7 peptide as substrate at 1 uM in presence of ATP by Mobility shift assay
[17] = biological target: Ribosomal protein S6 kinase beta-2 (Homo sapiens) (UniProt Q9UBS0); experiment: Inhibition of N-terminal GST-fused full length human p70S6Kbeta (1 to 482 residues) expressed in baculovirus expression system using S6K2 peptide as substrate at 1 uM in presence of ATP by Mobility shift assay
[18] = biological target: Serine/threonine-protein kinase PAK 5 (Homo sapiens) (UniProt Q9P286); experiment: Inhibition of N-terminal GST-fused human PAK5 catalytic domain (425 to 719 residues) expressed in baculovirus expression system using DAPK1tide as substrate at 1 uM in presence of ATP by Mobility shift assay
[19] = biological target: SRSF protein kinase 1 (Homo sapiens) (UniProt Q96SB4); experiment: Inhibition of N-terminal GST-fused full length human SRPK1 (1 to 655 residues) expressed in Escherichia coli expression system using SRPKtide as substrate at 1 uM in presence of ATP by IMAP assay
[20] = biological target: Testis-specific serine/threonine-protein kinase 1 (Homo sapiens) (UniProt Q9BXA7); experiment: Inhibition of N-terminal GST-fused full length human TSSK1 (1 to 367 residues) expressed in baculovirus expression system using GS peptide as substrate at 1 uM in presence of ATP by Mobility shift assay
[21] = biological target: Serine/threonine-protein kinase WNK2 (Homo sapiens) (UniProt Q9Y3S1); experiment: Inhibition of N-terminal GST-fused human WNK2 catalytic domain (166 to 489 residues) expressed in baculovirus expression system using SPAKtide as substrate at 1 uM in presence of ATP by Mobility shift assay
[22] = biological target: Sphingosine kinase 2 (Homo sapiens) (UniProt Q9NRA0); experiment: Inhibition of N-terminal GST-fused full length human SPHK2 (1 to 618 residues) expressed in baculovirus expression system using Sphingosine as substrate at 1 uM in presence of ATP by Mobility shift assay
[23] = biological target: 3-phosphoinositide-dependent protein kinase 1 (PDPK1) (Homo sapiens) (UniProt O15530); experiment: Inhibition of N-terminal GST-fused full length human PDK1 (1 to 556 residues) expressed in baculovirus expression system using T308tide as substrate at 1 uM in presence of ATP by Mobility shift assay

Ribosomal protein S6 kinase beta-2 (Homo sapiens), sequence (Q9UBS0 whole entry, the tested form may be a part): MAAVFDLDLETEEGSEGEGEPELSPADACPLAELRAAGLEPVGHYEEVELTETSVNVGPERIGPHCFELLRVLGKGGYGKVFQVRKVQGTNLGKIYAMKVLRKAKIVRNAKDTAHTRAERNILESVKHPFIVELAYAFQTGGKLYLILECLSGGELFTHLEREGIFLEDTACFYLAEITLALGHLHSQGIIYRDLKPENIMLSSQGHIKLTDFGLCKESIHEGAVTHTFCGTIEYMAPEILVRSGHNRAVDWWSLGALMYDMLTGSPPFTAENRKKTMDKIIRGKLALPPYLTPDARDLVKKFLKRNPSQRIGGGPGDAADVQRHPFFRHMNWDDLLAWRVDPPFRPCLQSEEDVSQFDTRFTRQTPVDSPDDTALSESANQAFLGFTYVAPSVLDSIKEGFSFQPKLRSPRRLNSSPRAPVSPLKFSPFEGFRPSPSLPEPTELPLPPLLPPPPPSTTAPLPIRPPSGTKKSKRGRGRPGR
Sphingosine kinase 2 (Homo sapiens), sequence (Q9NRA0 whole entry, the tested form may be a part): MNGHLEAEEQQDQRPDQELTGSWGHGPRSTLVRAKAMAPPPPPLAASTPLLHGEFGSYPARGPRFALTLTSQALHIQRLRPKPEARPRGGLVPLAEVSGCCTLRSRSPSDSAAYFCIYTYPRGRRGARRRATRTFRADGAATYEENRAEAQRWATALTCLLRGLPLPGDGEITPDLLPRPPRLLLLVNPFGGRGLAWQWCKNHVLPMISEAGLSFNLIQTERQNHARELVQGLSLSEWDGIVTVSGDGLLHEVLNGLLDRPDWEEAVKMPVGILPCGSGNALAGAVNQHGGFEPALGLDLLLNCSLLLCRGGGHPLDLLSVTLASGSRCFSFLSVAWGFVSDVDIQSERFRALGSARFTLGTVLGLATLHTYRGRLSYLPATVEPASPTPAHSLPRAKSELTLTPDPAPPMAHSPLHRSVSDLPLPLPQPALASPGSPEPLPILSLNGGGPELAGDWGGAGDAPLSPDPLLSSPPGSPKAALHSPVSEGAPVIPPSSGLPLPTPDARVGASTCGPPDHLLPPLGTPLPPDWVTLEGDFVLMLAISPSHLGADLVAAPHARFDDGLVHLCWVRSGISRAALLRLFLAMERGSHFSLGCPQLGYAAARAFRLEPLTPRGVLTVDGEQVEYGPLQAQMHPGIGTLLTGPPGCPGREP
Tyrosine-protein kinase HCK (Homo sapiens), sequence (P08631 2-526 limits assumed): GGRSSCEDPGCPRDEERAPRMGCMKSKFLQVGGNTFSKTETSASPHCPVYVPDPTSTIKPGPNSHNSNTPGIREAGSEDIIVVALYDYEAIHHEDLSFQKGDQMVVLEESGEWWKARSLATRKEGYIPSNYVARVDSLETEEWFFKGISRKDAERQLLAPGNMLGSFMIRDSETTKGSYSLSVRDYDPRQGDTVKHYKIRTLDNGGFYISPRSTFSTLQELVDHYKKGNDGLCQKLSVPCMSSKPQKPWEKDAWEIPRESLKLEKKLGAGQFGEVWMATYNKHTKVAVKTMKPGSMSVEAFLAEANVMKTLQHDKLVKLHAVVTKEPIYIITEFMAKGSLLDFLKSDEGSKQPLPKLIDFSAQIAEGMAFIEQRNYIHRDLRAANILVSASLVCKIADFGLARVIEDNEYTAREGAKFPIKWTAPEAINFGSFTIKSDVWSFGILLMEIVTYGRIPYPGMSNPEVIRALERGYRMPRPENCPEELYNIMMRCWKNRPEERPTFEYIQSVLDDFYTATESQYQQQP
Serine/threonine-protein kinase WNK2 (Homo sapiens), sequence (Q9Y3S1 whole entry, the tested form may be a part): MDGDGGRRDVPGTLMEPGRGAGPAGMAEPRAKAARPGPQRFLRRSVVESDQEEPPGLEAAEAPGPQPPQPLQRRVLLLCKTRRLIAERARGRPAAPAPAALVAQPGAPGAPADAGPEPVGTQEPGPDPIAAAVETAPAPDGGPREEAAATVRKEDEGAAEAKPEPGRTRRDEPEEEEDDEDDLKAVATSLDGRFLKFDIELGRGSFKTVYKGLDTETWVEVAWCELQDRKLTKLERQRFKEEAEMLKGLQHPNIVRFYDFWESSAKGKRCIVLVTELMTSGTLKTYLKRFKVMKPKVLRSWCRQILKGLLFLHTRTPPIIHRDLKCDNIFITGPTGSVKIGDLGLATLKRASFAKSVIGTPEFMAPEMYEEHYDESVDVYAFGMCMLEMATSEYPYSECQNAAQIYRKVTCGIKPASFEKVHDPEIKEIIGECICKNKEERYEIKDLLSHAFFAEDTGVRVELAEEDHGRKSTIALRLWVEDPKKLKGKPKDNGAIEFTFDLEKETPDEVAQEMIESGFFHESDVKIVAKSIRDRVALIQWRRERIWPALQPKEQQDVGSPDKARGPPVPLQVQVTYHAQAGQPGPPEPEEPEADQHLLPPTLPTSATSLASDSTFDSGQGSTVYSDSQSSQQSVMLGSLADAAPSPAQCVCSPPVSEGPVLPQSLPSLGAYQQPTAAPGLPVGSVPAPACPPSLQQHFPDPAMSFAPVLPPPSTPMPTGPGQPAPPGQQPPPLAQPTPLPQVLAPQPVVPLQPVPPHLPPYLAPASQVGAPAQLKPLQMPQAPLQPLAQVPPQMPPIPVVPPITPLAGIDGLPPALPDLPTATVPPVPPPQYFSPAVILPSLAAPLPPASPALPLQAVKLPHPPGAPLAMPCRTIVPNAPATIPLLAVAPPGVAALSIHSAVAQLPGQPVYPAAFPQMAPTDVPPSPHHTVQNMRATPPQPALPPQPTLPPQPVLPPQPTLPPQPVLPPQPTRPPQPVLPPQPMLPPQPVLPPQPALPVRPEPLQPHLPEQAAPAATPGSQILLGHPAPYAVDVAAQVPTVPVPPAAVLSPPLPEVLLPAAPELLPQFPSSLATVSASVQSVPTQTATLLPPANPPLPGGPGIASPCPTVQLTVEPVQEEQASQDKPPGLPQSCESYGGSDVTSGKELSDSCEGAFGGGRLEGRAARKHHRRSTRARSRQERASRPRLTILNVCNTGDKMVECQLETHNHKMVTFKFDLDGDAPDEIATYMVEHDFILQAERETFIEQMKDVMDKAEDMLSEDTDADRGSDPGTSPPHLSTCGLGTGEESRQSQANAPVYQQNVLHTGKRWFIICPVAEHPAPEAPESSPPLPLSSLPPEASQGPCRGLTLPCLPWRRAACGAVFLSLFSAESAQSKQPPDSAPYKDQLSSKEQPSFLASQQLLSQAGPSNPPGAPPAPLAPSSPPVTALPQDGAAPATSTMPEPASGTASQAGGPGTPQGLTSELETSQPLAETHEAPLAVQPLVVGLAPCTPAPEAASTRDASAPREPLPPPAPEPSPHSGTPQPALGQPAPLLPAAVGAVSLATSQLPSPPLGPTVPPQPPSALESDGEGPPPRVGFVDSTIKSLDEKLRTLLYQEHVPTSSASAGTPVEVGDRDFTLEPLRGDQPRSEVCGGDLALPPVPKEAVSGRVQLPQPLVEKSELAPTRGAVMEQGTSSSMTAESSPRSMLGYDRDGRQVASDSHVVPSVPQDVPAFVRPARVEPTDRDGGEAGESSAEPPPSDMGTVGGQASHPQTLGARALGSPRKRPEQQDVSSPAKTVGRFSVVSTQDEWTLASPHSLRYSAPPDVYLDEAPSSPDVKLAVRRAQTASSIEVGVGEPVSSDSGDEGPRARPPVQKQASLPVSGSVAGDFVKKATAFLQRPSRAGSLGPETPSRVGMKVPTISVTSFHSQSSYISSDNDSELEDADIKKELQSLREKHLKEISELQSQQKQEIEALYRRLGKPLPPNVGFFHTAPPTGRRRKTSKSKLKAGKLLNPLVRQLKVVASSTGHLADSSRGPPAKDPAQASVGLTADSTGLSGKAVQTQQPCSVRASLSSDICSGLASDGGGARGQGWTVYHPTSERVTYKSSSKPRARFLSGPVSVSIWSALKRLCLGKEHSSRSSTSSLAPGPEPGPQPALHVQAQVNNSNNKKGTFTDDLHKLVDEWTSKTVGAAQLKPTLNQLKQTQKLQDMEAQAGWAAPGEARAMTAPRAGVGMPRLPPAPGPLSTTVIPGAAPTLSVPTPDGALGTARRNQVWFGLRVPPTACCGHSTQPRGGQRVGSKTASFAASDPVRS
Tyrosine-protein kinase BTK (Homo sapiens), sequence (Q06187 whole entry, the tested form may be a part): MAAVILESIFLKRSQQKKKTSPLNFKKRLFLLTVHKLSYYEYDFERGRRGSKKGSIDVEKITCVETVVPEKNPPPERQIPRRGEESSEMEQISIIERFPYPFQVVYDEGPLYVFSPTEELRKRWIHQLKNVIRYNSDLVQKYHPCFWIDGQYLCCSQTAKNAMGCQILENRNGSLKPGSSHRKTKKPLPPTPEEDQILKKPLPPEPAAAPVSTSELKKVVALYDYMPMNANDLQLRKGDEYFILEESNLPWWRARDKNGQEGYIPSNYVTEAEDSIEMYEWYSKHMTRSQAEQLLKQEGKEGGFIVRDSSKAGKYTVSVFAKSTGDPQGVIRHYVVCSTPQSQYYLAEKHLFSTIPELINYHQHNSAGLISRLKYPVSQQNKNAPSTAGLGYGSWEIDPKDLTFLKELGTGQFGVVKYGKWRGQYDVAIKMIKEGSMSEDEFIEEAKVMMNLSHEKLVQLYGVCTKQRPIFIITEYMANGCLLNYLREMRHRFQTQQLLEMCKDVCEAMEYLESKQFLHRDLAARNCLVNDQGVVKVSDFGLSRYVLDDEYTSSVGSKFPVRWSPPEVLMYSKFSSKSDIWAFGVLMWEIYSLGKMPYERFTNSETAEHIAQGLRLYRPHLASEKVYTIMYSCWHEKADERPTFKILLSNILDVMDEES
Testis-specific serine/threonine-protein kinase 1 (Homo sapiens), sequence (Q9BXA7 whole entry, the tested form may be a part): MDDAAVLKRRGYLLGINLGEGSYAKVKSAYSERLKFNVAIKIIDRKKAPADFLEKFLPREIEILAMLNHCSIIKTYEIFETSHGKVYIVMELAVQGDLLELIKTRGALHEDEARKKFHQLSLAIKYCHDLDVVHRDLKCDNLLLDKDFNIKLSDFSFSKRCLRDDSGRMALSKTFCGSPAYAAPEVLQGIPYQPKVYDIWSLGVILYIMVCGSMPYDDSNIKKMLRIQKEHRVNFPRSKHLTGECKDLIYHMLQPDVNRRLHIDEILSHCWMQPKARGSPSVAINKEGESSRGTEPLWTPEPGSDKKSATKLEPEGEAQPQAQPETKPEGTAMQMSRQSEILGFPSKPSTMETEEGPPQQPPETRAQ

Row | SMILES | inhibition [1] [%] | inhibition [2] [%] | inhibition [3] [%] | inhibition [4] [%] | inhibition [5] [%] | inhibition [6] [%] | inhibition [7] [%] | inhibition [8] [%] | inhibition [9] [%] | inhibition [10] [%] | inhibition [11] [%] | inhibition [12] [%] | inhibition [13] [%] | inhibition [14] [%] | inhibition at 1 µM [15] [%] | inhibition [16] [%] | inhibition [17] [%] | inhibition [18] [%] | inhibition [19] [%] | inhibition [20] [%] | further results
1 | Cc1cc(C)c(CNC(=O)c2cc(Cl)c3c(c2C)O[C@@](C)([C@H]2CC[C@H](N(C)C)CC2)O3)c(=O)[nH]1 [VALEMETOSTAT] | -9 | -2.8 | -1.8 | -6.5 | -4.2 | 2.8 | 0.1 | -2.2 | -5.4 | -8.8 | 12.2 | 11.5 | -5.8 | 5.7 | -0.3 | 1.4 | 5.2 | -3.9 | -6.9 | -4.9 | inhibition [21]: -3.7%; inhibition [22]: 8%; inhibition [23]: -5.9%
2 | Cc1cc(C)c(CNC(=O)c2cc(Br)c3c(c2C)O[C@@](C)([C@H]2CC[C@H](N(C)C)CC2)O3)c(=O)[nH]1 | -10 | -0.2 | -2 | -4.6 | -2.5 | 3 | -3.2 | 1.5 | -2.7 | -6.6 | 6.5 | -0.6 | -2.9 | 0.7 | -1.7 | 1.5 | 2.1 | -4.3 | -4.7 | -2.6 | inhibition [21]: -2.1%; inhibition [22]: 12.7%; inhibition [23]: -5.4%
